Tested on: Japanese patients with R/R iNHL
Test: Phase 1 dose-escalation study: safety and tolerability (TEAEs, DLTs)
Format: in vivo
From the text: Japanese patients aged ≥ 20 years with R/R iNHL histologically confirmed as FL, nodal MZL, extra-nodal MZL of mucosa-associated lymphoid tissue, small lymphocytic lymphoma, lymphoplasmacytic lymphoma, Waldenström’s macroglobulinemia, or equivalent, according to World Health Organization classification, were eligible for this study. Other key eligibility criteria included being PI3K inhibitor therapy-naïve and an Eastern Cooperative Oncology Group performance status of 0 or 1. Further details of inclusion and exclusion criteria are provided in Supplementary Table 1.
This was a multicenter, open-label, dose-escalation, phase 1 study in Japan. All patients received oral zandelisib once daily at the same time each day, at least 1 h before or 2 h after a meal (CS: continuous schedule). Each treatment cycle was 28 days. Definitions of the DLTs described in this study can be found in Supplementary Table 2. The observation period for DLTs was from day 1 of Cycle 1 to day 1 of Cycle 2. Zandelisib was administered until disease progression or unacceptable toxicity. In the event of an AE, patients could be switched to IDT. In the case of disease progression while receiving IDT, patients could be switched back to CS per the investigator’s discretion.
A starting dose of 45 mg was set for investigating patient safety. This study adopted a standard 3 + 3 design. […] If DLTs occurred in 2 or more patients, the study was planned to be suspended pending a safety evaluation. If a DLT occurred in 1 patient, 3 further patients were added to cohort 1. If DLTs occurred in 0/3 or 1/6 patients in cohort 1, dosing in cohort 2 commenced (n = 6; 60 mg/day). If the incidence of DLTs in cohort 2 was ≤ 1/6, the maximum tolerated dose was not determined, and the dose in cohort 2 was to be selected as the recommended Japanese phase 2 dose.
The primary endpoint was the safety [number of patients with treatment-emergent adverse events (TEAEs), based on Common Terminology Criteria for Adverse Events version 5.0] and tolerability (including laboratory values, vital signs, and electrocardiogram performance) of zandelisib in Japanese patients. Hepatobiliary disorder, aspartate/alanine (AST/ALT) increased, diarrhea/colitis, organizing pneumonia, stomatitis, or rash were defined as irAEs in this manuscript. Secondary endpoints included PK (plasma concentrations and PK parameters) and the efficacy of zandelisib. […] The PK parameters for Cycle 1 day 1 and Cycle 2 day 1 were calculated for each patient by non-compartmental analysis. PK parameters included maximum plasma drug concentration (Cmax), area under the plasma concentration–time curve (AUC) from time zero to the last measurable point (AUC0–t), the AUC from time zero to infinity (AUC0-inf), and terminal half-life (t1/2).

CN1CCC(c2ccccc2CC(C)(C)Nc2nc(N3CCOCC3)nc(-n3c(C(F)F)nc4ccccc43)n2)CC1 [zandelisib]
2 patients: Grade 3 irAEs (45 mg)
no deaths were observed: deaths (45 mg and 60 mg)
3 (100.0) n (%): TEAE Investigations (SOC), All grades (45 mg, n = 3)
1 (33.3) n (%): TEAE Abdominal pain upper, All grades (45 mg, n = 3) | TEAE Amylase increased, All grades (45 mg, n = 3) | TEAE Anemia, All grades (45 mg, n = 3) | TEAE Arthralgia, All grades (45 mg, n = 3) | TEAE Back pain, All grades (45 mg, n = 3) | TEAE Blood and lymphatic system disorders (SOC), All grades (45 mg, n = 3) | TEAE Bradycardia, All grades (45 mg, n = 3) | TEAE CMV test positive, All grades (45 mg, n = 3) | TEAE Cardiac disorders (SOC), All grades (45 mg, n = 3) | TEAE Conjunctivitis, All grades (45 mg, n = 3) | TEAE Cytomegalovirus viremia, All grades (45 mg, n = 3) | TEAE Decreased appetite, All grades (45 mg, n = 3) | TEAE Decreased appetite, Grade ≥ 3 (45 mg, n = 3) | TEAE Diarrhea, Grade ≥ 3 (45 mg, n = 3) | TEAE Dry eye, All grades (45 mg, n = 3) | TEAE Dry skin, All grades (45 mg, n = 3) | TEAE Dysgeusia, All grades (45 mg, n = 3) | TEAE Dyspnea, All grades (45 mg, n = 3) | TEAE Dyspnea, Grade ≥ 3 (45 mg, n = 3) | TEAE Ear and labyrinth disorders (SOC), All grades (45 mg, n = 3) | TEAE Eosinophil count increased, All grades (45 mg, n = 3) | TEAE Eye disorders (SOC), All grades (45 mg, n = 3) | TEAE General disorders and administration site conditions (SOC), All grades (45 mg, n = 3) | TEAE Hepatic function abnormal, All grades (45 mg, n = 3) | TEAE Hepatobiliary disorders (SOC), All grades (45 mg, n = 3) | TEAE Herpes simplex, All grades (45 mg, n = 3) | TEAE Hypoesthesia, All grades (45 mg, n = 3) | TEAE Infusion site extravasation, All grades (45 mg, n = 3) | TEAE Insomnia, All grades (45 mg, n = 3) | TEAE Joint effusion, All grades (45 mg, n = 3) | TEAE Lymphocyte count decreased, Grade ≥ 3 (45 mg, n = 3) | TEAE Metabolism and nutrition disorders (SOC), All grades (45 mg, n = 3) | TEAE Metabolism and nutrition disorders (SOC), Grade ≥ 3 (45 mg, n = 3) | TEAE Muscle spasms, All grades (45 mg, n = 3) | TEAE Nausea, All grades (45 mg, n = 3) | TEAE Nervous system disorders (SOC), All grades (45 mg, n = 3) | TEAE Neutrophil count decreased, Grade ≥ 3 (45 mg, n = 3) | TEAE Oral herpes, All grades (45 mg, n = 3) | TEAE Organizing pneumonia, All grades (45 mg, n = 3) | TEAE Organizing pneumonia, Grade ≥ 3 (45 mg, n = 3)
2 (66.7) n (%): TEAE ALT increased, All grades (45 mg, n = 3) | TEAE AST increased, All grades (45 mg, n = 3) | TEAE Constipation, All grades (45 mg, n = 3) | TEAE Diarrhea, All grades (45 mg, n = 3) | TEAE Gastrointestinal disorders (SOC), All grades (45 mg, n = 3) | TEAE Gastrointestinal disorders (SOC), Grade ≥ 3 (45 mg, n = 3) | TEAE Hypogammaglobulinemia, All grades (45 mg, n = 3) | TEAE Immune system disorders (SOC), All grades (45 mg, n = 3) | TEAE Infections and infestations (SOC), All grades (45 mg, n = 3) | TEAE Investigations (SOC), Grade ≥ 3 (45 mg, n = 3) | TEAE Lymphocyte count decreased, All grades (45 mg, n = 3) | TEAE Musculoskeletal and connective tissue disorders (SOC), All grades (45 mg, n = 3) | TEAE Nasopharyngitis, All grades (45 mg, n = 3) | TEAE Neutrophil count decreased, All grades (45 mg, n = 3)
0 n (%): TEAE ALT increased, Grade ≥ 3 (45 mg, n = 3) | TEAE AST increased, Grade ≥ 3 (45 mg, n = 3) | TEAE Abdominal discomfort, All grades (45 mg, n = 3) | TEAE Abdominal discomfort, Grade ≥ 3 (45 mg, n = 3) | TEAE Abdominal pain upper, Grade ≥ 3 (45 mg, n = 3) | TEAE Amylase increased, Grade ≥ 3 (45 mg, n = 3) | TEAE Anemia, Grade ≥ 3 (45 mg, n = 3) | TEAE Arthralgia, Grade ≥ 3 (45 mg, n = 3) | TEAE Back pain, Grade ≥ 3 (45 mg, n = 3) | TEAE Blepharitis, All grades (45 mg, n = 3) | TEAE Blepharitis, Grade ≥ 3 (45 mg, n = 3) | TEAE Blood and lymphatic system disorders (SOC), Grade ≥ 3 (45 mg, n = 3) | TEAE Blood creatinine increased, All grades (45 mg, n = 3) | TEAE Blood creatinine increased, Grade ≥ 3 (45 mg, n = 3) | TEAE Bradycardia, Grade ≥ 3 (45 mg, n = 3) | TEAE CMV test positive, Grade ≥ 3 (45 mg, n = 3) | TEAE Cardiac disorders (SOC), Grade ≥ 3 (45 mg, n = 3) | TEAE Conjunctivitis, Grade ≥ 3 (45 mg, n = 3) | TEAE Constipation, Grade ≥ 3 (45 mg, n = 3) | TEAE Cough, All grades (45 mg, n = 3) | TEAE Cough, Grade ≥ 3 (45 mg, n = 3) | TEAE Drug hypersensitivity, All grades (45 mg, n = 3) | TEAE Drug hypersensitivity, Grade ≥ 3 (45 mg, n = 3) | TEAE Drug-induced liver injury, All grades (45 mg, n = 3) | TEAE Drug-induced liver injury, Grade ≥ 3 (45 mg, n = 3) | TEAE Dry eye, Grade ≥ 3 (45 mg, n = 3) | TEAE Dry skin, Grade ≥ 3 (45 mg, n = 3) | TEAE Dysgeusia, Grade ≥ 3 (45 mg, n = 3) | TEAE Ear and labyrinth disorders (SOC), Grade ≥ 3 (45 mg, n = 3) | TEAE Eczema, All grades (45 mg, n = 3) | TEAE Eczema, Grade ≥ 3 (45 mg, n = 3) | TEAE Eosinophil count increased, Grade ≥ 3 (45 mg, n = 3) | TEAE Erythema multiforme, All grades (45 mg, n = 3) | TEAE Erythema multiforme, Grade ≥ 3 (45 mg, n = 3) | TEAE Eye disorders (SOC), Grade ≥ 3 (45 mg, n = 3) | TEAE Flank pain, All grades (45 mg, n = 3) | TEAE Flank pain, Grade ≥ 3 (45 mg, n = 3) | TEAE GGT increased, All grades (45 mg, n = 3) | TEAE GGT increased, Grade ≥ 3 (45 mg, n = 3) | TEAE General disorders and administration site conditions (SOC), Grade ≥ 3 (45 mg, n = 3) | TEAE Hepatic function abnormal, Grade ≥ 3 (45 mg, n = 3) | TEAE Hepatobiliary disorders (SOC), Grade ≥ 3 (45 mg, n = 3) | TEAE Herpes simplex, Grade ≥ 3 (45 mg, n = 3) | TEAE Herpes zoster, All grades (45 mg, n = 3) | TEAE Herpes zoster, Grade ≥ 3 (45 mg, n = 3) | TEAE Hypoesthesia, Grade ≥ 3 (45 mg, n = 3) | TEAE Hypogammaglobulinemia, Grade ≥ 3 (45 mg, n = 3) | TEAE Immune system disorders (SOC), Grade ≥ 3 (45 mg, n = 3) | TEAE Infections and infestations (SOC), Grade ≥ 3 (45 mg, n = 3) | TEAE Infusion site extravasation, Grade ≥ 3 (45 mg, n = 3) | TEAE Insomnia, Grade ≥ 3 (45 mg, n = 3) | TEAE Joint effusion, Grade ≥ 3 (45 mg, n = 3) | TEAE Muscle spasms, Grade ≥ 3 (45 mg, n = 3) | TEAE Musculoskeletal and connective tissue disorders (SOC), Grade ≥ 3 (45 mg, n = 3) | TEAE Nasopharyngitis, Grade ≥ 3 (45 mg, n = 3) | TEAE Nausea, Grade ≥ 3 (45 mg, n = 3) | TEAE Nervous system disorders (SOC), Grade ≥ 3 (45 mg, n = 3) | TEAE Oral herpes, Grade ≥ 3 (45 mg, n = 3) | TEAE Oropharyngeal pain, All grades (45 mg, n = 3)

Source: publication PMC9668928, “Zandelisib (ME-401) in Japanese patients with relapsed or refractory indolent non-Hodgkin’s lymphoma: an open-label, multicenter, dose-escalation phase 1 study” (International Journal of Hematology, 2022)
